Test: Influencing factors stability (heating, light illumination, high humidity; spread and uncovered, 20 days)
Type: physicochemical
Conditions: for Maximum single impurity / Purity / Total impurities: monohydrochloride
Method: Example 6: the crystal form I of the dihydrochloride salt of the compound represented by formula (I) (example 1) was spread and uncovered, and the steadily of the sample was evaluated under heating (40° C., 60° C.), light illumination (4500 Lux), and high humidity (RH 75%, RH 90%) with a period of 20 days.
Example 10: the crystal form A (example 7) of the monohydrochloride salt of the compound of formula (I) was spread and uncovered, and the stability of the sample was evaluated under heating (40° C., 60° C.), light illumination (4500 Lux), high humidity (RH 75%, RH 90%) conditions with a period of 20 days.
Example 11: the crystal form B of the monohydrochloride salt of the compound represented by formula (I) (example 8) was spread and uncovered, and the stability of the sample was evaluated under heating (40° C., 60° C.), light illumination (4500 Lux), high humidity (RH 75%, RH 90%) conditions with a period of 20 days.
Example 12: the crystal form C of the monohydrochloride salt of the compound represented by formula (I) (example 9) was spread and uncovered, and the stability of the sample was evaluated under heating (40° C., 60° C.), light illumination (4500 Lux), high humidity (RH 75%, RH 90%) conditions with a period of 20 days.

[1] = light illumination (4500 Lux), 4 days
[2] = light illumination (4500 Lux), 10 days
[3] = light illumination (4500 Lux), 20 days

## CCCCOc1nc(N)c2cnn(Cc3ccc(CN4CCCC4)cc3)c2n1.Cl [crystal form C, 6-butoxy-1-(4-(pyrrolidin-1-ylmethyl)benzyl)-1H-pyrazolo[3,4-d]pyrimidin-4-amine monohydrochloride]
0 day
  Maximum single impurity: 0.10%
  Purity: 99.55%
  Total impurities: 0.45%
40° C., 4 days
  Maximum single impurity: 0.10%
  Purity: 99.55%
  Total impurities: 0.45%
40° C., 10 days
  Maximum single impurity: 0.10%
  Purity: 99.60%
  Total impurities: 0.40%
40° C., 20 days
  Maximum single impurity: 0.10%
  Purity: 99.53%
  Total impurities: 0.47%
60° C., 4 days
  Maximum single impurity: 0.10%
  Purity: 99.50%
  Total impurities: 0.50%
60° C., 10 days
  Maximum single impurity: 0.10%
  Purity: 99.58%
  Total impurities: 0.42%
60° C., 20 days
  Maximum single impurity: 0.13%
  Purity: 99.42%
  Total impurities: 0.58%
75% RH, 4 days
  Maximum single impurity: 0.11%
  Purity: 99.55%
  Total impurities: 0.45%
75% RH, 10 days
  Maximum single impurity: 0.09%
  Purity: 99.61%
  Total impurities: 0.39%
75% RH, 20 days
  Maximum single impurity: 0.10%
  Purity: 99.57%
  Total impurities: 0.43%
90% RH, 4 days
  Maximum single impurity: 0.11%
  Purity: 99.51%
  Total impurities: 0.49%
90% RH, 10 days
  Maximum single impurity: 0.10%
  Purity: 99.61%
  Total impurities: 0.39%
90% RH, 20 days
  Maximum single impurity: 0.10%
  Purity: 99.58%
  Total impurities: 0.42%
[1]
  Maximum single impurity: 0.11%
  Purity: 99.57%
  Total impurities: 0.43%
[2]
  Maximum single impurity: 0.09%
  Purity: 99.64%
  Total impurities: 0.36%
[3]
  Maximum single impurity: 0.10%
  Purity: 99.54%
  Total impurities: 0.46%
Light illumination, 40° C., 60° C., 75% RH, 90% RH, 20 days
  stability under the influencing factor conditions (in words): good

Source: patent US20210188856A1, “CRYSTAL FORM OF HYDROCHLORIDE OF PYRAZOLOHETEROARYL DERIVATIVE AND PREPARATION METHOD” (JIANGSU HENGRUI MEDICINE CO., LTD., priority 2018, published 2021)
